Reference: the supplement of paper PMC11061612

Columns and labels:
Assay in all cases: combination Emax (second highest fraction inhibited in the dose matrix, 72 h); higher = more inhibition; extreme values may be limits of the assay
[1] = system: AMO-1 (Plasma Cell Myeloma)
Method in brief: (§1)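 Cell lines in DMEM/F12 or RPMI with 10% FBS were plated in 1536-well plates, held 24 hours at 37°C, 5% CO2, then given two-drug dose matrices for 72 hours (DMSO typically 0.2%). Viability was read by CellTiter-Glo 2.0 luminescence and scaled as inhibition from 0 (vehicle wells) to 1 (blank wells). Combination Emax is the second-highest inhibition in the matrix; Bliss excess is observed combination effect minus expected EA + EB − EA·EB, EA and EB being single-agent effects.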

[2] = system: MIA-PaCa-2 (Pancreatic Carcinoma)
Method in brief: as §1

[3] = system: NEC8 (Other Solid Carcinomas)
Method in brief: as §1

[4] = system: SW13 (Other Solid Carcinomas)
Method in brief: as §1

[5] = system: Caov-4 (Ovarian Carcinoma)
Method in brief: as §1

TK10 (Kidney Carcinoma) = system: TK10 (Kidney Carcinoma)
Method in brief: as §1

[6] = system: VA-ES-BJ (Other Solid Carcinomas)
Method in brief: as §1

[7] = system: EFM-19 (Breast Carcinoma)
Method in brief: as §1

TGW (Neuroblastoma) = system: TGW (Neuroblastoma)
Method in brief: as §1

[8] = system: C-4-I (Cervical Carcinoma)
Method in brief: as §1

[9] = system: Ca9-22 (Head and Neck Carcinoma)
Method in brief: as §1

PWR-1E (Non-Cancerous) = system: PWR-1E (Non-Cancerous)
Method in brief: as §1

[10] = system: OSC-20 (Oral Cavity Carcinoma)
Method in brief: as §1

YH-13 (Glioblastoma) = system: YH-13 (Glioblastoma)
Method in brief: as §1

[11] = system: MLMA (Other Blood Carcinomas)
Method in brief: as §1

[12] = system: NUGC-3 (Gastric Carcinoma)
Method in brief: as §1

[13] = system: SU8686 (Pancreatic Carcinoma)
Method in brief: as §1

D-263MG (Glioblastoma) = system: D-263MG (Glioblastoma)
Method in brief: as §1

[14] = system: PANC-04-03 (Pancreatic Carcinoma)
Method in brief: as §1

[15] = system: LU-65 (Non-Small Cell Lung Carcinoma)
Method in brief: as §1

| Structure (SMILES) | combination Emax [1] | combination Emax [2] | combination Emax [3] | combination Emax [4] | combination Emax [5] | combination Emax (TK10 (Kidney Carcinoma)) | combination Emax [6] | combination Emax [7] | combination Emax (TGW (Neuroblastoma)) | combination Emax [8] | combination Emax [9] | combination Emax (PWR-1E (Non-Cancerous)) | combination Emax [10] | combination Emax (YH-13 (Glioblastoma)) | combination Emax [11] | combination Emax [12] | combination Emax [13] | combination Emax (D-263MG (Glioblastoma)) | combination Emax [14] | combination Emax [15] |
| --- | --- | --- | --- | --- | --- | --- | --- | --- | --- | --- | --- | --- | --- | --- | --- | --- | --- | --- | --- | --- |
| COc1nnc2ccc(N3CCC(c4ccc(OCCN5CCN(C)C(=O)[C@H]5C)cc4)CC3)nn12 [AZD5153] + CCN(CCO)CCCOc1ccc2c(Nc3cc(CC(=O)Nc4cccc(F)c4)[nH]n3)ncnc2c1 [AZD2811] (first compound max 1 µM, 7x7, partner max 1 µM) | 0.912 | 0.88 | 0.826 | 0.455 | 0.597 | 0.564 | 0.579 | 0.366 | 0.501 | 0.565 | 0.592 | 0.782 | 0.261 | 0.585 | 0.915 | 0.579 | 0.0898 | 0.445 | 0.487 | 0.494 |
| COc1nnc2ccc(N3CCC(c4ccc(OCCN5CCN(C)C(=O)[C@H]5C)cc4)CC3)nn12 [AZD5153] + C[C@@H]1COCCN1C2=NC(=NC(=C2)C3(CC3)[S@](=N)(=O)C)C4=C5C=CNC5=NC=C4 [AZD6738] (first compound max 1 µM, 7x7, partner max 10 µM) | 0.978 | 0.919 | 0.954 | 0.718 | 0.894 | 0.695 | 0.799 | 0.549 | 0.728 | 0.876 | 0.878 | 0.997 | 0.309 | 0.663 | 0.967 | 0.775 | 0.1 | 0.465 | 0.545 | 0.734 |
| COc1nnc2ccc(N3CCC(c4ccc(OCCN5CCN(C)C(=O)[C@H]5C)cc4)CC3)nn12 [AZD5153] + Cc1c2c(nn1C)CSCc1cc(n(C)n1)CSc1cc(c3ccccc3c1)OCCCc1c(C(=O)O)n(C)c3c-2c(Cl)ccc13 [AZD5991] (first compound max 1 µM, 7x7, partner max 1 µM) | 1 | 0.993 | 1 | 0.969 | 0.86 | 0.593 | 0.566 | 0.773 | 0.808 | 0.933 | 0.815 | 0.837 | 0.199 | 0.667 | 0.994 | 0.519 | 0.134 | 0.98 | 0.442 | 0.623 |
| COc1nnc2ccc(N3CCC(c4ccc(OCCN5CCN(C)C(=O)[C@H]5C)cc4)CC3)nn12 [AZD5153] + Cn1cnc2c(F)c(Nc3ccc(Br)cc3Cl)c(C(=O)NOCCO)cc21 [Selumetinib] (first compound max 1 µM, 7x7, partner max 10 µM) | 0.928 | 0.859 | 0.929 | 0.593 | 0.706 | 0.604 | 0.481 | 0.28 | 0.602 | 0.883 | 0.699 | 0.777 | 0.23 | 0.546 | 0.906 | 0.649 | 0.241 | 0.441 | 0.548 | 0.789 |
| Cc1c2c(nn1C)CSCc1cc(n(C)n1)CSc1cc(c3ccccc3c1)OCCCc1c(C(=O)O)n(C)c3c-2c(Cl)ccc13 [AZD5991] + C1CN(CCC1(C(=O)N[C@@H](CCO)C2=CC=C(C=C2)Cl)N)C3=NC=NC4=C3C=CN4 [Capivasertib] (first compound max 1 µM, 7x7, partner max 3 µM) | 1 | 0.244 | 0.431 | 0.967 | 0.493 | 0.257 | 0.227 | 0.629 | 0.326 | 1 | 0.242 | 0.226 | 0.199 | 0.265 | 0.407 | 0.171 | 0.129 | 0.958 | 0.186 | 0.543 |
| Cc1c2c(nn1C)CSCc1cc(n(C)n1)CSc1cc(c3ccccc3c1)OCCCc1c(C(=O)O)n(C)c3c-2c(Cl)ccc13 [AZD5991] + C=CCn1c(=O)c2cnc(Nc3ccc(N4CCN(C)CC4)cc3)nc2n1-c1cccc(C(C)(C)O)n1 [AZD1775] (first compound max 1 µM, partner max 1 µM) | 1 | 0.711 | 0.851 | 0.881 | 0.928 | 0.498 | 0.6 | 0.778 | 0.806 | 1 | 0.879 | 0.55 | 0.346 | 0.411 | 0.952 | 0.78 | 0.33 | 0.758 | 0.512 | 0.586 |
| Cc1c2c(nn1C)CSCc1cc(n(C)n1)CSc1cc(c3ccccc3c1)OCCCc1c(C(=O)O)n(C)c3c-2c(Cl)ccc13 [AZD5991] + CC1(C)CCC(CN2CCN(c3ccc(C(=O)NS(=O)(=O)c4ccc(NCC5CCOCC5)c([N+](=O)[O-])c4)c(Oc4cnc5[nH]ccc5c4)c3)CC2)=C(c2ccc(Cl)cc2)C1 [Venetoclax] (first compound max 1 µM, 7x7, partner max 1 µM) | 1 | 0.451 | 0.793 | 0.927 | 0.616 | 0.208 | 0.145 | 0.624 | 0.857 | 0.976 | 0.725 | 0.199 | 0.145 | 0.145 | 0.248 | 0.196 | 0.0608 | 0.863 | 0.175 | 0.393 |
| Cc1c2c(nn1C)CSCc1cc(n(C)n1)CSc1cc(c3ccccc3c1)OCCCc1c(C(=O)O)n(C)c3c-2c(Cl)ccc13 [AZD5991] + CCN(CCO)CCCOc1ccc2c(Nc3cc(CC(=O)Nc4cccc(F)c4)[nH]n3)ncnc2c1 [AZD2811] (first compound max 1 µM, 7x7, partner max 1 µM) | 1 | 0.66 | 0.33 | 0.964 | 0.743 | 0.228 | 0.395 | 0.783 | 0.402 | 1 | 0.465 | 0.939 | 0.438 | 0.579 | 0.245 | 0.391 | 0.172 | 0.994 | 0.237 | 0.343 |
| Cc1c2c(nn1C)CSCc1cc(n(C)n1)CSc1cc(c3ccccc3c1)OCCCc1c(C(=O)O)n(C)c3c-2c(Cl)ccc13 [AZD5991] + CN(C)CCCOc1ccc(-c2ccc3ncc4c(c3c2)n(C2CCOCC2)c(=O)n4C)cn1 [AZD0156] (first compound max 1 µM, 7x7, partner max 1 µM) | 1 | 0.289 | 0.291 | 0.828 | 0.511 | 0.272 | 0.243 | 0.494 | 0.293 | 1 | 0.256 | 0.29 | 0.256 | 0.254 | 0.397 | 0.369 | 0.16 | 0.711 | 0.24 | 0.366 |
| Cc1c2c(nn1C)CSCc1cc(n(C)n1)CSc1cc(c3ccccc3c1)OCCCc1c(C(=O)O)n(C)c3c-2c(Cl)ccc13 [AZD5991] + C[C@@H]1COCCN1C2=NC(=NC(=C2)C3(CC3)[S@](=N)(=O)C)C4=C5C=CNC5=NC=C4 [AZD6738] (first compound max 1 µM, 7x7, partner max 10 µM) | 1 | 0.706 | 0.978 | 0.854 | 0.914 | 0.522 | 0.686 | 0.465 | 0.714 | 1 | 0.93 | 0.985 | 0.406 | 0.46 | 0.697 | 0.69 | 0.353 | 0.935 | 0.479 | 0.675 |
| Cc1c2c(nn1C)CSCc1cc(n(C)n1)CSc1cc(c3ccccc3c1)OCCCc1c(C(=O)O)n(C)c3c-2c(Cl)ccc13 [AZD5991] + C[C@@H](Nc1cc(F)cc(F)c1)c1cc(C(=O)N(C)C)cc2c(=O)cc(N3CCOCC3)oc12 [AZD8186] (first compound max 1 µM, 7x7, partner max 3 µM) | 1 | 0.336 | 0.369 | 0.947 | 0.507 | 0.419 | 0.322 | 0.586 | 0.347 | 0.985 | 0.521 | 0.268 | 0.237 | 0.585 | 0.532 | 0.209 | 0.378 | 0.975 | 0.266 | 0.449 |
| Cc1c2c(nn1C)CSCc1cc(n(C)n1)CSc1cc(c3ccccc3c1)OCCCc1c(C(=O)O)n(C)c3c-2c(Cl)ccc13 [AZD5991] + Cc1cc2ncnn2cc1Nc1ncc2c(n1)n(C1CCOCC1)c(=O)n2C [AZD7648] (first compound max 1 µM, 7x7, partner max 10 µM) | 1 | 0.354 | 0.339 | 0.861 | 0.57 | 0.385 | 0.221 | 0.629 | 0.339 | 1 | 0.214 | 0.247 | 0.257 | 0.351 | 0.439 | 0.428 | 0.127 | 0.75 | 0.342 | 0.397 |
